Test results: the supplement of paper PMC10883282

Tests used:
Test in all cases: relative viability vs DMSO control (72 h) (fraction); higher = more viable cells
RD = system: RD
Procedure, shortened: (§1)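 Sarcoma cell lines were grown in 384-well plates seeded toward 80–90% confluence and exposed 24 h later to serially diluted compound. After 72 h at 37 °C and 5% CO2, with 0.1% DMSO vehicle and a 5 µM positive control on the plates, ATPLite was read. Relative viability, given as percent growth averaged over up to triplicate wells, was rescaled so that 1 is full and 0 is none.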

VA-ES-BJ = system: VA-ES-BJ
Procedure, shortened: as §1

HS729 = system: HS729
Procedure, shortened: as §1

MES-SA = system: MES-SA
Procedure, shortened: as §1

SK-LMS-1 = system: SK-LMS-1
Procedure, shortened: as §1

CO[C@H]1C[C@@H]2CC[C@@H](C)[C@@](O)(O2)C(=O)C(=O)N2CCCC[C@H]2C(=O)O[C@H]([C@H](C)C[C@@H]2CC[C@@H](O)[C@H](OC)C2)CC(=O)[C@H](C)/C=C(\C)[C@@H](O)[C@@H](OC)C(=O)[C@H](C)C[C@H](C)/C=C/C=C/C=C/1C [Rapamycin]
relative viability
Conditions | HS729 | MES-SA | RD | SK-LMS-1 | VA-ES-BJ
0.00017 µM | 0.98 | 0.876 | 0.95 | 0.924 | 0.942
0.00051 µM | 0.999 | 0.648 | 0.87 | 0.758 | 0.814
0.00152 µM | 1.01 | 0.469 | 0.808 | 0.697 | 0.723
0.00457 µM | 0.972 | 0.424 | 0.702 | 0.621 | 0.584
0.01372 µM | 0.97 | 0.384 | 0.629 | 0.58 | 0.476
0.04115 µM | 0.926 | 0.362 | 0.579 | 0.567 | 0.451
0.1235 µM | 0.962 | 0.363 | 0.592 | 0.551 | 0.435
0.3704 µM | 0.877 | 0.353 | 0.573 | 0.526 | 0.427
1.111 µM | 0.918 | 0.352 | 0.588 | 0.554 | 0.444
3.333 µM | 0.891 | 0.34 | 0.605 | 0.522 | 0.446
10 µM | 0.92 | 0.349 | 0.568 | 0.5 | 0.43

N#Cc1ccnc(N2C(=O)CC[C@H]2C(=O)N(c2cncc(F)c2)[C@H](C(=O)NC2CC(F)(F)C2)c2ccccc2Cl)c1 [Ivosidenib]
relative viability
Conditions | HS729 | MES-SA | RD | SK-LMS-1 | VA-ES-BJ
0.00017 µM | 0.966 | 0.905 | 1.04 | 1.01 | 1.03
0.00051 µM | 1 | 0.943 | 1.02 | 1.01 | 1.02
0.00152 µM | 1.01 | 0.932 | 1.03 | 1.033 | 1
0.00457 µM | 1.01 | 0.935 | 1.05 | 1.04 | 1.03
0.01372 µM | 0.998 | 0.938 | 1.05 | 1.04 | 1.04
0.04115 µM | 0.993 | 0.929 | 1.06 | 1.02 | 1.02
0.1235 µM | 1.01 | 0.933 | 1.07 | 1.03 | 1.043
0.3704 µM | 1 | 0.981 | 1.03 | 0.968 | 1.003
1.111 µM | 0.982 | 0.976 | 1.04 | 0.997 | 1.01
3.333 µM | 0.949 | 0.925 | 1.02 | 0.968 | 1.03
10 µM | 0.96 | 0.8939 | 0.944 | 0.954 | 0.988
